Measured values published in patent US12679827B2, “Pyrimidine compounds and their pharmaceutical uses” (National Health Research Institutes, priority 2020, dated 2026).

Tests used:
[1] = background statement, WO 2014/190207A1; cited from earlier work
[2] = system: NCI-H69; test: Small-cell-lung cancer cell proliferation inhibition assay (PrestoBlue), NCI-H69; assay type: cell-based; conditions: Homo sapiens, MYCN amplified SCLC cells, 72 hours
Description: (§1) Small cell lung cancer cells NCI-H82 (ATCC HTB-175, cMYC amplified), NCI-H446 (ATCC® HTB-171, cMYC amplified), and NCI-H69 (ATCC® HTB-119, MYCN amplified) were seeded at the density of 5000-10000 cells per well in 96-well plates. After 24 hours, the cancer cells were treated with each compound at various concentrations (0-10 μM) and then incubated for another 72 hours. IC50 values were computed based on duplicated 8-point titration.

[3] = system: NCI-H446; test: Small-cell-lung cancer cell proliferation inhibition assay (PrestoBlue), NCI-H446; assay type: cell-based; conditions: Homo sapiens, cMYC amplified SCLC cells, 72 hours
Description: as §1

[4] = system: NCI-H82; test: Small-cell-lung cancer cell proliferation inhibition assay (PrestoBlue), NCI-H82; assay type: cell-based; conditions: Homo sapiens, cMYC amplified SCLC cells, 72 hours
Description: as §1

[5] = system: NCI-H446 xenografted tumor; test: Inhibition of xenografted tumor growth, NCI-H446-xenografted tumorigenicity mouse model; assay type: in vivo, mice; conditions: 100 mg/kg orally; for tumor regression: NCI-H446 xenograft
Description: The efficacies of two compounds of Formula (I), i.e., compound 71 and compound 122, in inhibiting tumor growth were determined using a NCI-H446-xenografted tumorigenicity mouse model as below.
Male athymic nu/nu nude mice (BioLASCO, Taiwan) at age 6 wk were housed in sterile cages maintained under 12-h light/dark cycles with controlled temperature and humidity. The mice were inoculated s.c. with 1×10^6 NCI-H446 cells (ATCC® HTB-171) resuspended in saline mixed with 50% Metrigel Matrix (Corning, USA). The sizes of the xenografted tumors were measured by a digital caliper (GMC-190; Goldsun Electronics Co.) and calculated using the algorithm: tumor volume (mm^3)=length×(width)^2/2. Body weight and tumor size were measured at least twice a week.

[6] = system: cMYC; test: In vivo cMYC protein level reduction, NCI-H446 xenograft mouse model, Western blot; set-up: species or system mice; conditions: one oral dosage of 100 mg/kg; tumors harvested 2-24 hours; FIG. 3
Description: (§2) The efficacy of a compound of Formula (I), i.e., compound 71, in reducing the cMYC protein level and in inducing cell apoptosis was assessed using an NCI-H446 xenograft tumorigenicity mouse model as follows.
(§3) Male athymic nu/nu nude mice (BioLASCO. Taiwan) at 6-week age were housed in sterile cages maintained under 12-h light/dark cycles with controlled temperature and humidity. Mice were inoculated s.c. with 1×10^6 NCI-H446 cells resuspended in saline mixed with 50% Metrigel Matrix (Corning, USA). The sizes of the xenografted tumors were measured by a digital caliper (GMC-190; Goldsun Electronics Co.) and calculated using the algorithm: tumor volume (mm^3)=length×(width)^2/2. Body weight and tumor size were measured at least twice a week. When the xenografted NCI-H446 tumor reached a size ≥500 mm^3, the xenografted tumor-bearing nude mice were oral (PO) administered with compound 71 at one dosage of 100 mg/kg. Tumors were harvested at 2 hours, 4 hours, 8 hours, and 24 hours after the administration. Tissue lysates of the tumors were subjected for Western blot analysis. The primary antibodies used were cMYC (Cell Signaling, Cat No. 5605S), PARP-1 (Abcam, ab32378), and β-ACTIN (Sigma-Aldrich, A1978).

[7] = system: cleaved PARP-1 (cPARP-1); test: In vivo cell apoptosis induction (cleaved PARP-1), NCI-H446 xenograft mouse model, Western blot; set-up: species or system mice; conditions: one oral dosage of 100 mg/kg; 24 hours after administration; FIG. 3
Description: as §2, §3

[8] = molecular target: T1, human Aurora A (amino acids 123-401) (Homo sapiens, UniProt O14965); test: Kinase-Glo Luminescent Kinase assay, in vitro inhibition of Aurora A kinase activity; assay type: biochemical; conditions: recombinant GST-tagged Aurora A, 5.0 μM ATP, 37° C., 120 minutes
T1 construct: human Aurora A (amino acids 123-401) was expressed in Sf9 insect cells; GST; made in house; host or cells: Sf9 insect cells
T1 sequence (O14965 123-401): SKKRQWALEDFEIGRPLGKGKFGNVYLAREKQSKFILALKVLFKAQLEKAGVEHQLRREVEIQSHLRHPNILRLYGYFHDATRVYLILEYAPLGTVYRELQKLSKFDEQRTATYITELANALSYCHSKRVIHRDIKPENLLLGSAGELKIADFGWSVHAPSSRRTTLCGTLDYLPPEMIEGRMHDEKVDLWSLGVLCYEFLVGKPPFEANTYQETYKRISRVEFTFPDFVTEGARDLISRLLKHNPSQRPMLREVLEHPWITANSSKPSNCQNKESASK
Description: Recombinant glutathione S-transferase (GST)-tagged N-terminal truncated human Aurora A (amino acids 123-401) was expressed in Sf9 insect cells and then purified by glutathione affinity chromatography to afford recombinant Aurora A. Recombinant Aurora A (150 ng) was reacted with each test compound (100 nM) in 50 μL of 50 mM Tris-HCl pH 7.4, 10 mM NaCl, 10 mM MgCl2, 0.01% bovine serum albumin, 5.0 μM ATP, 1 mM dithiothreitol, 15 μM tetra(-LRRASLG) peptide at 37° C. for 120 minutes. Then, to the reaction was added 50 μL of Kinase-Glo Plus Reagent. The resulting mixture was incubated at 25° C. for 20 minutes. A 70 μL aliquot of the mixture was transferred to a black microliter plate. Luminescence was measured using a Wallac Vector 1420 multilabel counter (PerkinElmer, USA).

Row | IC50 [2] | IC50 [3] | IC50 [4] | IC50 [8] | Compound | tumor regression [5] | other results
1 |  |  |  |  | O=C(Nc1ccc(Nc2nccc(Nc3cc(C4CCCC4)[nH]n3)n2)cc1)Nc1cccc(C(F)(F)F)c1 [CD532] |  | in vivo efficacy [1]: weak
2 | < 1 µM | < 1 µM | < 1 µM |  | CCC(=O)n1nc(C)cc1Nc1cc(N2CCN(CC)CC2)nc(N[C@H]2CCN(C(=O)c3ccc(Cl)cc3F)C2)n1 [Compound 71] | more than 80% | tumor size after treatment ([5]; 5-on-2-off, from about 250 mm^3, in 10 days, FIG. 2A): smaller than 50 mm^3; tumor size after treatment ([5]; 5-on-2-off, from larger than 750 mm^3, in 14 days, FIG. 2C): smaller than 50 mm^3; xenografted tumors with reduced cMYC protein level [6]: more than 50%; xenografted tumors with increased amounts of cleaved PARP-1 (cell apoptosis) [7]: more than 80%
3 | < 1 µM | < 1 µM | < 1 µM | < 0.1 µM | Cc1cc(Nc2cc(N3C[C@H](C)NC[C@H]3C)nc(NC3CCN(C(=O)c4cccc(Cl)c4F)CC3)n2)n[nH]1 [Compound 107] |  | 
4 | < 1 µM | < 1 µM | < 1 µM | < 0.1 µM | CCC(=O)n1nc(C)cc1Nc1cc(N2CCN(CC)CC2)nc(NC2CCN(C(=O)c3cccc(Cl)c3F)CC2)n1 [Compound 122] | more than 80% | tumor size after treatment ([5]; from about 250 mm^3, FIG. 2B): smaller than 50 mm^3
5 | < 1 µM | < 1 µM | < 1 µM | < 0.1 µM | CCC(=O)n1nc(Nc2cc(N3CCN(CC)CC3)nc(NC3CCN(C(=O)c4cccc(Cl)c4F)CC3)n2)cc1C [Compound 123] |  | 
6 |  |  |  |  | COc1cc(Nc2ncc3c(n2)-c2ccc(Cl)cc2C(c2c(F)cccc2OC)=NC3)ccc1C(=O)O [MCLN8237, reference compound] |  | tumor size 6 weeks after the treatment stopped ([5]; FIG. 2A): > 700 mm^3
